# Measured values published in article PMC9841589, “Identification of 2-Aminoacyl-1,3,4-thiadiazoles as Prostaglandin E2 and Leukotriene Biosynthesis Inhibitors” (ACS Medicinal Chemistry Letters, 2022).
# Legend:
# Human recombinant sEH = target: T1, Human recombinant sEH (Homo sapiens, UniProt P34913); experiment: Activity assay of human recombinant sEH; assay type: biochemical; conditions: percentage of uninhibited control (100%), n = 3, n.i.: no inhibitory activity observed, read-out: sEH residual activity (%)
# T1 construct: made in house; host or cells: Sf9 cells infected with a baculovirus provided by Dr. B. Hammock
# T1 sequence (P34913 1-555): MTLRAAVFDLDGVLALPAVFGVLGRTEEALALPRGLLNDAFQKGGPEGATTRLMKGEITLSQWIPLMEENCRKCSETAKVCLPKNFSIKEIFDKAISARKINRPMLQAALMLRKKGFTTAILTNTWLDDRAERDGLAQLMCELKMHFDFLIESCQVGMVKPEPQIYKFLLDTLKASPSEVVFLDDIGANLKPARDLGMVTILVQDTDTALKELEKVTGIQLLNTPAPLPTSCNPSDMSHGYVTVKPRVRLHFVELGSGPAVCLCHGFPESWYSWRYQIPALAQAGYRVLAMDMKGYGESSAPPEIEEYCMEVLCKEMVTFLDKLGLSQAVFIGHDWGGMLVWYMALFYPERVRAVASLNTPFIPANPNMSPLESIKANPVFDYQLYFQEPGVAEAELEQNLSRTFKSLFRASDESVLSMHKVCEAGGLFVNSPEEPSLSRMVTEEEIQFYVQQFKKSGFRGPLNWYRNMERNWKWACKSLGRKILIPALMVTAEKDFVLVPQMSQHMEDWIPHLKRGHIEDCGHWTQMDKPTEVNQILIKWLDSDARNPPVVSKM
# Experimental: 8) plus 5 mM glutathione, 100 µM EDTA and 5 µM hemoglobin) to a final concentration of 50 U/mL for COX-1 and 20 U/mL for COX-2, and pre-incubated with test compounds 3, 6, 7, and 9 (10 µM) or vehicle (0.1% DMSO) over 5 min at rt. After 1 min at 37 °C, reactions were started after addition of arachidonic acid to a final concentration of 5 µM for COX-1 and 2 µM for COX-2. After 5 min at 37 °C, 1 mL of ice-cold methanol was added for stopping the reactions on ice. Then, PGB 1 as internal standard and 530 µl PBS plus HCl were added, and solid-phase extraction was performed as reported before.4-6, 17-19 COXs product formation (12-HHT) was determined using RP-HPLC. 4-6, 17-19 Indomethacin (10 µM) and celecoxib (5 µM) were used as reference drugs.
# Expression, purification and activity assay of human recombinant sEH
# Human recombinant sEH was expressed in Sf9 cells and was infected using a baculovirus, provided by Dr. B. Hammock, University of California, Davis, CA. After 72 hours, cells were pelleted and sonicated (3 × 10 sec) at 4 °C in lysis buffer (50 mM NaHPO 4, pH = 8, 300 mM NaCl, 10% glycerol, 1 mM EDTA, 1 mM phenylmethanesulfonyl fluoride, 10 µg/mL of leupeptin, and 60 µg/mL of soybean trypsin inhibitor). Lysates were centrifuged over 60 min at 4 °C (100,000 × g), and supernatants were collected and submitted to a benzylthio-sepharose-affinity chromatography for sEH purification by elution with 4-fluorochalcone oxide in PBS plus 1 mM DTT and 1 mM EDTA.720 Bio-Rad protein detection kit (Bio-Rad Laboratories, Munich, Germany) was used for total protein on dialyzed and concentrated (Millipore Amicon-Ultra-15 centrifugal filter) enzyme solution and a fluorescence-based assay was used to define the epoxide hydrolase activity. 5,618, 19 Then, sEH was diluted in Tris buffer (25 mM, pH = 7) supplemented with 0.1 mg/mL of BSA to an appropriate enzyme concentration and pre-incubated with test compounds 3, 6, 7, 9 (10 µM) or vehicle (0.1% DMSO) for 15 min at rt. 50 µM 3-phenyl-cyano(6-methoxy-2-naphthalenyl)methyl ester-2-oxiraneacetic acid (PHOME), a non-fluorescent compound, was added for starting the reaction.
# PHOME is enzymatically converted into a fluorescent compound, 6-methoxy-naphtaldehyde, detectable by using a spectrofluorometer setting λ em = 465 nm, λ ex = 330 nm. After 60 min, ZnSO 4 […]
# (200 mM) was added for stopping the reaction, and then fluorescence was detected. AUDA (12-(3-adamantan-1-yl-ureido)-dodecanoic acid) (100 nM) was used as reference drug.
# Human neutrophils and monocytes were freshly isolated from leukocyte concentrates obtained from the Institute of Transfusion Medicine, University Hospital Jena. […]
# [1] = tested on: LPS-stimulated J774A.1 macrophages; experiment: Determination of IL-6 and PGE2 in murine macrophages; assay type: cell-based, mouse; conditions: J774A.1, LPS 10 μg/mL, compound 1 μM, 24 h
# Experimental: LOX product analysis, using an MRM method with diagnostic ion fragments and identification, was performed as described previously.922 Determination of IL-6 and PGE2 in murine macrophages Mouse macrophage cell line (J774A.1, ATCC® TIB-67™) was cultured in DMEM supplemented with FBS (ATCC® 30-2020™) to a final concentration of 10%. Cells were seeded in petri culture (100 × 20 mm, Falcon ®) at a density of 5 × 10^5 cells per dish and allowed to grow for dishes 24 h. The medium was then replaced, and cells were treated with LPS (10 ) in the presence or absence of μg/ml compounds 3, 6, 7, 9 (1 µM). Following incubations of 24 h, cells were collected with a cell scraper and, after centrifugation at 14000 × g for 10 min at 4 °C, the supernatant was collected and stored at −80°C for ELISA analysis 1023.
remaining activity at 10 µM (Human recombinant sEH) [%],SMILES,IL-6 production [1],PGE2 production [1]
67.7,Cc1cc(C(=O)Nc2nnc(-c3ccc(-c4ccccc4N)cc3)s2)cc(Cl)n1 [compound 6],,
83.9,Nc1ccccc1-c1ccc(-c2nnc(NC(=O)c3c(Cl)ccnc3Cl)s2)cc1 [compound 9],,
96,O=C(Nc1nnc(-c2ccc(-c3cccc(O)c3)cc2)s1)c1ccccc1Br [compound 3],able to modulate,able to modulate
164,Nc1ccccc1-c1ccc(-c2nnc(NC(=O)c3ccccc3Br)s2)cc1 [compound 7],,displayed a similar activity only in terms of PGE2 modulation
